The molecules below were run on D54 ERlucT glycosylation luciferase reporter, luminescence, 24 h (assay: N-linked glycosylation inhibitors, luciferase reporter, dose response, D54 ERlucT cells, luminescence, cherry-picks (AID 624491);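 also: signal gain reflects blocked N-linked glycosylation of a luciferase reporter; actives raise luciferase signal so AC26 marks activators of the reporter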).

`COc1ccc(CC(=O)NCc2ccc(-n3cccc3)cc2)cc1OC` and `COc1cc(-c2coc3c(C(=O)NCc4ccc(OC)c(OC)c4)cccc23)ccc1O` are within 1.5-fold of each other in AC26: 825 nM for the first, 1220 nM for the second.

Compared with `Oc1cc(NCc2ccc(Cl)cc2)cc2cccnc12`, `Cc1ccnc(NC(=O)CN2C(=O)NC(C)(c3ccc4ccccc4c3)C2=O)c1` (configuration not stated) is 1.8-fold higher in AC26: 6410 nM for the first, 11400 nM for the second.

First: CCN(CC)S(=O)(=O)c1ccc(N2CCOCC2)c(NC(=O)c2[nH]c(C)c(C(C)=O)c2C)c1
Second: CN(C)S(=O)(=O)c1ccc(N2CCCC2)c(C(=O)Nc2cccc(F)c2)c1
The AC26 of the first is 2-fold higher: 1860 nM for the first, 931 nM for the second.

First: O=C(CCl)Nc1ccc(Sc2ccc(NC(=O)CCl)cc2)cc1
Second: CCc1ccc(CNC(=O)Cc2ccc(NC(=O)C3=C(C)OCCS3)cc2)cc1
The AC26 of the first is 1.9-fold higher: 667 nM for the first, 352 nM for the second.

Going from `Cc1noc2ncnc(Sc3ccccc3Cl)c12` to `Cn1cnc(Sc2ncnc3nc[nH]c23)c1[N+](=O)[O-]`, the AC26 falls from 12500 nM to 1140 nM (11-fold).

Going from `COc1ccc(C(=O)N2CCN(S(=O)(=O)c3ccc(C)cc3C)CC2)cc1S(=O)(=O)N1CCOCC1` to `O=C(NCc1cccs1)C1CCN(c2ccc(S(=O)(=O)N3CCOCC3)cc2Cl)CC1`, the AC26 falls from 5770 nM to 646 nM (8.9-fold).

Going from `N#Cc1c(-c2ccc(F)cc2)c(-c2ccc(F)cc2)nn(CCO)c1=O` to `O=C(NCCCN1CCOCC1)c1cc(-c2ccc(F)cc2)on1`, the AC26 rises from 2080 nM to 14000 nM (6.7-fold).

`Cc1[nH]c2ccccc2c1/C=N/NC(=O)c1cc(-c2ccncc2)nc2ccccc12` and `Cc1ccc(COc2ccccc2-c2cc(C(=O)N/N=C/c3cccnc3)[nH]n2)cc1` are within 1.5-fold of each other in AC26: 4040 nM for the first, 5260 nM for the second.

Going from `CCOC(=O)c1sc(Nc2nc(C)cc(C)n2)nc1C` to `CCOC(=O)c1ccc(Oc2cc(C)nc(SC)n2)cc1`, the AC26 rises from 949 nM to 1720 nM (1.8-fold).

Going from `COc1cc(/C=N/NC(=O)c2ccc(CSc3nc4ccccc4[nH]3)cc2)cc(OC)c1OC` to `COc1cc(Nc2c3c(nc4ccccc24)CCC3)cc(OC)c1OC`, the AC26 falls from 3980 nM to 71.5 nM (56-fold).

First: O=C(/C(=C\c1ccccc1)c1nc2ccccc2[nH]1)c1ccc(Cl)cc1
Second: O=C(/C=C/c1c[nH]c2ccccc12)c1cccc2ccccc12
The AC26 of the first is 5.4-fold lower: 1000 nM for the first, 5410 nM for the second.

Going from `Cn1nc(-c2ccc(N3CCOCC3)c(NS(=O)(=O)c3ccccc3)c2)c2ccccc2c1=O` to `O=C1Nc2ccccc2/C1=C/c1nc2ccccc2c(=O)n1-c1ccc(O)cc1`, the AC26 rises from 6110 nM to 11500 nM (1.9-fold).

Compared with `O=[N+]([O-])c1cc(S(=O)(=O)C(F)(F)F)ccc1Sc1nc2ccccc2[nH]1`, `Nc1c(C(=O)Nc2ccc(S(=O)(=O)N3CCCC3)cc2)sc2nc3ccc(OC(F)(F)F)cc3cc12` is 3.9-fold lower in AC26: 4570 nM for the first, 1160 nM for the second.

Going from `CCOC(=O)/C(=C/c1c(C)n(C)c2ccc([N+](=O)[O-])cc12)C(C)=O` to `CCOC(=O)C(CC)(CC)C(=O)/C=C/c1cccc(Br)c1`, the AC26 falls from 4230 nM to 517 nM (8.2-fold).

Compared with `O=C(N/N=C/c1cccs1)c1cc(-c2cccc3ccccc23)n[nH]1`, `O=C(N/N=C/c1ccccc1)c1sccc1OCc1ccc(F)cc1` is 1.8-fold lower in AC26: 4700 nM for the first, 2600 nM for the second.

First: COc1ccc(C(=O)/C=C2/C(=O)Nc3ccccc32)cc1OC
Second: COCCNC(=O)c1cc(-c2ccccc2OC)on1
The AC26 of the first is 13-fold lower: 714 nM for the first, 9620 nM for the second.

First: CCN(CC)CCCNc1cc(C)c(C#N)c2nc3ccccc3n12
Second: C=C(C)Cc1c(C)c(C#N)c2nc3ccccc3n2c1NCCCN(C)C
The AC26 of the first is 16-fold higher: 17000 nM for the first, 1080 nM for the second.

First: O=C(/C=C/c1ccco1)Nc1nnc(-c2ccco2)s1
Second: CC(/C=N/NC(=O)c1cc(-c2ccc(C)s2)[nH]n1)=C\c1ccccc1
The AC26 of the first is 2.1-fold lower: 310 nM for the first, 650 nM for the second.

`COc1cc(NC(=O)c2ccc(-c3c(C)noc3C)c3ccoc23)cc(OC)c1OC` and `COc1cc(C(=O)Nc2ccc3c(c2)nc(C)n3C)cc(OC)c1OC` are within 1.5-fold of each other in AC26: 3770 nM for the first, 2690 nM for the second.

Compared with `CN(/N=C/c1ccc(N(C)C)cc1)C1=NS(=O)(=O)c2ccccc21`, `Cc1ccc(/C=N/NC(=O)c2sccc2OCc2ccc(F)cc2)cc1` is 1.5-fold higher in AC26: 1610 nM for the first, 2440 nM for the second.

`CCOc1ccc2[nH]c3c(N4CCc5ccccc5C4)ncnc3c2c1` and `COc1ccc(-c2cc(C(F)F)n3ncc(C(=O)N4CCc5ccccc54)c3n2)cc1` are within 1.5-fold of each other in AC26: 3460 nM for the first, 2500 nM for the second.

`COc1ccc(C2Nc3ccc4ccccc4c3-c3c2c(=O)oc2ccccc32)cc1` (configuration not stated) and `COc1ccc(C(=O)CSc2nnc(-c3cc4ccccc4cc3O)n2Cc2ccco2)cc1` are within 1.5-fold of each other in AC26: 2070 nM for the first, 1840 nM for the second.

Compared with `O=C(O)c1ccc(N/N=C/c2ccc(-c3ccc(Cl)cc3Cl)o2)cc1`, `O=C(/C=C/Sc1ccccc1)c1ccc(Cl)cc1` is 7.3-fold lower in AC26: 5330 nM for the first, 727 nM for the second.

`Cc1cccc(Nc2nc(N)nc(-c3oc4ccccc4c3C)n2)c1` and `Cc1ccc2nc(SCc3nnc(-c4ccccc4[N+](=O)[O-])o3)c(C#N)cc2c1` are within 1.5-fold of each other in AC26: 7050 nM for the first, 5790 nM for the second.

Compared with `COc1cccc(CNC(=O)COC(=O)c2ccc(-c3ccc(O)cc3)cc2)c1`, `COc1cccc(C2=NOC(C(=O)NCc3ccccc3)C2)c1` (configuration not stated) is 9.4-fold lower in AC26: 685 nM for the first, 73.2 nM for the second.

Going from `Cc1ccc(C(=O)Nc2ccccc2C(=O)N2CC(C)OC(C)C2)cc1` (configuration not stated) to `Cc1ccc(C(=O)N2CCC(C(=O)Nc3cccc([N+](=O)[O-])c3)CC2)cc1`, the AC26 falls from 1330 nM to 804 nM (1.7-fold).

First: O=C(c1[nH]c(C(F)(F)F)nc1-c1ccccc1)N1CCN(c2ccccc2)CC1
Second: Nc1ccc2nc(-c3ccccc3)c(-c3ccccc3)nc2c1
The AC26 of the first is 3.7-fold lower: 395 nM for the first, 1480 nM for the second.

First: Cc1ccc2c(c1)c1ccc3c(c1n2C)C(=O)C=CC3=O
Second: Cc1c(C(=O)C(=O)N2c3ccc(F)cc3CCC2C)c2ccccc2n1C (configuration not stated)
The AC26 of the first is 6.1-fold lower: 948 nM for the first, 5780 nM for the second.

Going from `COc1cc(C2=NOC(C(=O)NCc3ccco3)C2)cc(OC)c1OC` (configuration not stated) to `COc1cc2c(cc1OC)-c1c3c(cc4c1[C@@H](C2)N(C)CC4)OCO3`, the AC26 rises from 1030 nM to 17600 nM (17-fold).

Compared with `COc1ccccc1-c1c(C#N)c(N)nc2c1CCc1ccccc1-2`, `OCCNc1c2ccccc2nc2ccccc12` is 1.5-fold higher in AC26: 592 nM for the first, 907 nM for the second.

Compared with `CNC(=O)c1cccc(NC(=O)c2ccccc2OCc2ccccc2)c1`, `c1ccc(Cc2nnc(Sc3ccccc3)c3ccccc23)cc1` is 15-fold higher in AC26: 355 nM for the first, 5170 nM for the second.

Going from `COC(=O)C1=C(c2cc3ccccc3o2)C[C@@H]2CC[C@H]1N2C(=O)N1CCCCC1` to `O=C(NC1CCCCC1)c1ccc([N+](=O)[O-])o1`, the AC26 falls from 14200 nM to 852 nM (17-fold).

Going from `CCN(CC)CCNc1ccc(CO)c2oc3ccccc3c(=O)c12` to `CCc1nc2ccc(C(=O)NCCc3c[nH]c4ccccc34)cn2c1N(C=O)CCC(C)C`, the AC26 falls from 1280 nM to 343 nM (3.7-fold).

Compared with `OC1CCCN(Cc2ccc3ccc4cccc5ccc2c3c45)C1` (configuration not stated), `O=C(Nc1ccccc1)N(CCN1CCOCC1)Cc1ccccc1F` is 3.1-fold lower in AC26: 4270 nM for the first, 1360 nM for the second.

`O=C(NCc1ccccc1Br)c1cccc2c1C(=O)c1ccc(-c3ccc(OC(F)(F)F)cc3)cc1S2(=O)=O` and `CCn1c2ccccc2c2cc(NC(=O)COC(=O)c3cc(S(N)(=O)=O)c(Cl)cc3Cl)ccc21` are within 1.5-fold of each other in AC26: 4060 nM for the first, 3710 nM for the second.

First: COc1ccc(-n2c(=S)[nH]c3cc(C(=O)Nc4ccc(C)c(F)c4)ccc3c2=O)c(OC)c1
Second: CCCC(=O)Nc1nc2ccc(NC(=O)c3c(F)c(F)c(OC)c(F)c3F)cc2s1
The AC26 of the first is 9.9-fold higher: 9690 nM for the first, 974 nM for the second.

First: NC(=O)CC(NC(=O)Cc1ccc(Br)cc1)c1ccc(NCC2CC2)c([N+](=O)[O-])c1 (configuration not stated)
Second: COc1ccc(-c2ccc(C(c3c(C)[nH][nH]c3=O)c3c(C)[nH][nH]c3=O)o2)c([N+](=O)[O-])c1
The AC26 of the first is 30-fold higher: 6670 nM for the first, 224 nM for the second.

`CCOc1ccc(N2CCc3c(C)nc(SC)nc32)cc1` and `CN(C)c1ccc(C(C[N+](=O)[O-])c2c(N)n(C)c(=O)n(C)c2=O)c(F)c1C#N` (configuration not stated) are within 1.5-fold of each other in AC26: 2650 nM for the first, 3300 nM for the second.

`COC(=O)c1sc(N)c(C(=O)OC)c1COC(=O)c1c(C)noc1C` was tested, and the AC26 was 2130 nM.

Source: PubChem BioAssay AID624491 (Broad Institute, 2012)
